Here are results for 20 molecules from patent US20230416227A1, “PLASMA KALLIKREIN INHIBITORS” (Merck Sharp & Dohme LLC, priority 2020, published 2023).

By IC50 is commonly meant the concentration that inhibits the measured activity by half.

One assay has as its target T1, Human plasma kallikrein (Homo sapiens, UniProt P03952).
T1 construct: yields a heavy chain (371 amino acids) and a light chain (248 amino acids); purchased Enzyme Research Laboratories
Briefly: Plasma Kallikrein Assay. It is filed as biochemical. The conditions noted are these: purified Human plasma kallikrein 0.5 nM, substrate Acetyl-K-P-R-AFC, pH 7.4.

The next assay addresses human factor XIa (Homo sapiens, UniProt P03951). Briefly: Factor XIa Assay. It is filed as biochemical. The note with it: human factor XIa 0.04 nM, substrate GPR-AFC, 30 min pre-incubation at 25° C., pH 7.4; read-out: FXIa IC50. How it is done:
The effectiveness of a compound of the present invention as an inhibitor of Coagulation factor XIa can be determined using a relevant purified serine protease, and an appropriate synthetic substrate. The rate of hydrolysis of the chromogenic or fluorogenic substrate by the relevant serine protease was measured both in the absence and presence of compounds of the present invention. Assays were conducted at rt or at 37° C. […] A decrease in the rate of fluorescence change in the presence of inhibitor is indicative of enzyme inhibition. Such methods are known to one skilled in the art. The results of this assay are expressed as the half-maximal inhibitory concentrations (IC50), or the inhibitory constant, Ki.
Compounds were pre-incubated for 30 min at 25° C. with human (0.04 nM) factor XIa in 50 mM HEPES buffer with 150 mM sodium chloride, 5 mM calcium chloride, 0.1% PEG 8000, pH 7.4. factor XIa enzymatic activity was determined by addition of the substrate glycine-proline-arginine-7-amido-4-trifluoromethylcoumarin (GPR-AFC) and measurement of the fluorescence at 400/505 nm after a 60 min incubation at 25° C. The % inhibition for each data point was calculated from the data and analyzed using the log (inhibitor) vs. response four parameters equation to determine the half-maximal inhibitory concentrations (IC50). The IC50 were converted to equilibrium inhibitory constants (Ki) using the Cheng-Prusoff equation.

T1 sequence (P03952 391-638 limits assumed): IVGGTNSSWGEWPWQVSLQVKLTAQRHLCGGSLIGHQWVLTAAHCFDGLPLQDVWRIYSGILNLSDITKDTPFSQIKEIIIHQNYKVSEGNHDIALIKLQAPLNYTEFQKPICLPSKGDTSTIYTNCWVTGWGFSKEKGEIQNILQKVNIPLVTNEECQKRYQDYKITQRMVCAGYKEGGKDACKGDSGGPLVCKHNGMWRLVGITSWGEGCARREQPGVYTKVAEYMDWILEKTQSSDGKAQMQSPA
T1 sequence (P03952 20-390 partner limits assumed): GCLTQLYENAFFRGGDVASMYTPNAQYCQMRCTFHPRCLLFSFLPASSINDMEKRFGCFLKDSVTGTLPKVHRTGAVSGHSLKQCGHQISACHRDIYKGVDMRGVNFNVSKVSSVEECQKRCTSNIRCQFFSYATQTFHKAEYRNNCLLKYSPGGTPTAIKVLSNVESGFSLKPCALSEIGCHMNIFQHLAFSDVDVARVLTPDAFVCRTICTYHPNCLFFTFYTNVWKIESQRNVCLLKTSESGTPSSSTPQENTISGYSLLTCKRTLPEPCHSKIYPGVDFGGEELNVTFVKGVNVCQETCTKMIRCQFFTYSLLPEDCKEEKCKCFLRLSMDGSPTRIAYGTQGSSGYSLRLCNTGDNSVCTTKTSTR
Sequence of human factor XIa (P03951 388-625 limits assumed): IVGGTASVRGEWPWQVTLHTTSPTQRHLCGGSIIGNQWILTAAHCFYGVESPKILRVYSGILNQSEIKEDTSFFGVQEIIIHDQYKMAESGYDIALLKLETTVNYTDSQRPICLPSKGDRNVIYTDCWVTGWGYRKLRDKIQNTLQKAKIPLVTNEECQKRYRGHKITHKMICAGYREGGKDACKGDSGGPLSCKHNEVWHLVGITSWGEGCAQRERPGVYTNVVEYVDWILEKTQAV
Sequence of human factor XIa (P03951 19-387 partner limits assumed): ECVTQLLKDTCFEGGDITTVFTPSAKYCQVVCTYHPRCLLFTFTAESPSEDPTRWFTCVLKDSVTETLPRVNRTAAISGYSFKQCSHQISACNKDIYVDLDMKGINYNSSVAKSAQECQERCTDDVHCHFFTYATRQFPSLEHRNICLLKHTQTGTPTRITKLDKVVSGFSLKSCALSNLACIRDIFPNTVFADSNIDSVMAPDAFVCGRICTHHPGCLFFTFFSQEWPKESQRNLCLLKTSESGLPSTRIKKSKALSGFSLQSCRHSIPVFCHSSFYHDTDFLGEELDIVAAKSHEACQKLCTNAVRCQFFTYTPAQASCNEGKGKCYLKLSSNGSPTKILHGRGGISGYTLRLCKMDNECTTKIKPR

With `CC(c1cnc(N2CC[C@H]2CN2C[C@@H](O)[C@H](O)C2)nc1)n1cc(NC(=O)c2cncc(-c3c(C(F)F)ccc(Cl)c3F)n2)cn1` (stereo partly drawn) [Example 168, 6-(3-Chloro-6-(difluoromethyl)-2-fluorophenyl)-N-(1-(1-(2-((S)-2-(((3R,4R)-3,4-dihydroxypyrrolidin-1-yl)methyl)azetidin-1-yl)pyrimidin-5-yl)ethyl)-1H-pyrazol-4-yl)pyrazine-2-carboxamide], the IC50 amounted to 2 nM on Human plasma kallikrein and 6350 nM at human factor XIa.

As for `CC1(O)CN(C[C@@H]2[C@@H]3C[C@@H]3CN2c2ncc(Cn3cc(NC(=O)c4cncc(-c5c(C(F)F)ccc(Cl)c5F)n4)cn3)cn2)C1` [Example 145, 6-(3-Chloro-6-(difluoromethyl)-2-fluorophenyl)-N-(1-((2-((1R,2S,5S)-2-((3-hydroxy-3-methylazetidin-1-yl)methyl)-3-azabicyclo[3.1.0]hexan-3-yl)pyrimidin-5-yl)methyl)-1H-pyrazol-4-yl)pyrazine-2-carboxamide], the results for the concentration for half-maximal inhibition (IC50) at Human plasma kallikrein and on human factor XIa were 0.5 nM and 366 nM, respectively.

Take `C[C@@H](O)CNCC1CCCN1c1ncc(Cn2cc(NC(=O)c3cncc(-c4c(C(F)F)ccc(Cl)c4F)n3)cn2)cn1` (stereo partly drawn) [Example 154, 6-(3-Chloro-6-(difluoromethyl)-2-fluorophenyl)-N-(1-((2-(2-((((R)-2-hydroxypropyl)amino)methyl)pyrrolidin-1-yl)pyrimidin-5-yl)methyl)-1H-pyrazol-4-yl)pyrazine-2-carboxamide]: the figures for the IC50 at Human plasma kallikrein and on human factor XIa were 1.2 nM and 4130 nM, respectively.

For `NC(=O)c1cc(N2CCC2)ncc1Cn1cc(NC(=O)c2cncc(-c3c(C(F)F)ccc(Cl)c3F)n2)cn1` [Example 206, N-(1-((6-(Azetidin-1-yl)-4-carbamoylpyridin-3-yl)methyl)-1H-pyrazol-4-yl)-6-(3-chloro-6-(difluoromethyl)-2-fluorophenvl)pyrazine-2-carboxamide], the IC50 against Human plasma kallikrein worked out at 24.4 nM; on human factor XIa it was 820 nM.

Consider `C[C@@H](c1cnc(N2CC(F)C2)nc1)n1cc(NC(=O)c2cncc(-c3c(C(F)F)ccc(Cl)c3F)n2)cn1` [Example 92, (S)-6-(3-Chloro-6-(difluoromethyl)-2-fluorophenyl)-N-(1-(1-(2-(3-fluoroazetidin-1-yl)pyrimidin-5-yl)ethyl)-1H-pyrazol-4-yl)pyrazine-2-carboxamide], for which the results for the half-maximal inhibitory concentration (IC50) against Human plasma kallikrein and on human factor XIa were 18.5 nM and 5020 nM, respectively.

For the molecule `CC(c1cnc(N2C[C@H]3C[C@H]3C2C(=O)N(C)C)nc1)n1cc(NC(=O)c2cncc(-c3c(C(F)F)ccc(Cl)c3F)n2)cn1` (single isomer, unassigned) [Example 200, (1R,2S,5S or 1S,2R,5R)-3-(5-((R or S)-1-(4-(6-(3-Chloro-6-(difluoromethyl)-2-fluorophenyl)pyrazine-2-carboxamido)-1H-pyrazol-1-yl)ethyl)pyrimidin-2-yl)-N,N-dimethyl-3-azabicyclo[3.1.0]hexane-2-carboxamide], the IC50 on Human plasma kallikrein worked out at 2.4 nM; at human factor XIa it was 1120 nM.

For `Cc1nc(C(C)n2cc(NC(=O)c3cncc(-c4c(C(F)F)ccc(Cl)c4F)n3)cn2)cnc1N1CCC1` (single isomer, unassigned) [Example 40, (R or S)-N-(1-(1-(5-(azetidin-1-yl)-6-methylpyrazin-2-yl)ethyl)-1H-pyrazol-4-yl)-6-(3-chloro-6-(difluoromethyl)-2-fluorophenyl)pyrazine-2-carboxamide], the figures for the 50% inhibitory concentration (IC50) against Human plasma kallikrein and on human factor XIa were 3.7 nM and 794 nM, respectively.

Take `O=C(Nc1cnn(Cc2ccc(N3CCC3)nc2)c1)c1cncc(-c2c(C(F)F)ccc(Cl)c2F)n1` [Example 18, N-(1-((6-(Azetidin-1-yl)pyridin-3-yl)methyl)-1H-pyrazol-4-yl)-6-(3-chloro-6-(difluoromethyl)-2-fluorophenyl)pyrazine-2-carboxamide]: the IC50 against Human plasma kallikrein was found to be 13.1 nM; on human factor XIa, 2000 nM.

On to `CCc1ncc(-c2c(C(F)F)ccc(Cl)c2F)nc1C(=O)Nc1cnn(Cc2cnc(N3CCC3)nc2)c1` [Example 14, N-(1-((2-(Azetidin-1-yl)pyrimidin-5-yl)methyl)-1H-pyrazol-4-yl)-6-(3-chloro-6-(difluoromethyl)-2-fluorophenyl)-3-ethylpyrazine-2-carboxamide], for which the IC50 turned out to be 8 nM at Human plasma kallikrein and 312 nM on human factor XIa.

For `Cc1nc(C(C)n2cc(NC(=O)c3cncc(-c4c(C(F)F)ccc(Cl)c4F)n3)cn2)cnc1N1CCC1` (single isomer, unassigned) [Example 39, (S or R)-N-(1-(1-(5-(azetidin-1-yl)-6-methylpyrazin-2-yl)ethyl)-1H-pyrazol-4-yl)-6-(3-chloro-6-(difluoromethyl)-2-fluorophenyl)pyrazine-2-carboxamide], the values for the half-inhibitory concentration (IC50) against Human plasma kallikrein and on human factor XIa were 1.3 nM and 478 nM, respectively.

`CC(c1cnc(N2Cc3cccnc3C2)nc1)n1cc(NC(=O)c2cncc(-c3c(C(F)F)ccc(Cl)c3F)n2)cn1` (stereo not shown) [Example 83, 6-(3-Chloro-6-(difluoromethyl)-2-fluorophenyl)-N-(1-(1-(2-(5,7-dihydro-6H-pyrrolo[3,4-b]pyridin-6-yl)pyrimidin-5-yl)ethyl)-1H-pyrazol-4-yl)pyrazine-2-carboxamide]: the IC50 was found to be 9.4 nM against Human plasma kallikrein and 8080 nM on human factor XIa.

On to `O=C(Nc1cnn(Cc2cnc(N3CCC3)c(F)c2)c1)c1cncc(-c2c(C(F)F)ccc(Cl)c2F)n1` [Example 12, N-(1-((6-(Azetidin-1-yl)-5-fluoropyridin-3-yl)methyl)-1H-pyrazol-4-yl)-6-(3-chloro-6-(difluoromethyl)-2-fluorophenyl)pyrazine-2-carboxamide], for which the IC50 on Human plasma kallikrein was found to be 6.2 nM; on human factor XIa, 3510 nM.

`C[C@H](c1cnc(N2CCC2)nc1)n1cc(NC(=O)c2cncc(-c3c(C(F)F)ccc(Cl)c3F)n2)cn1` (single isomer, unassigned) [Example 4]: the concentration for half-maximal inhibition (IC50) at Human plasma kallikrein was determined as 23.1 nM; on human factor XIa, 1320 nM.

As to `C[C@H](F)CN(C)CC1CCCN1c1ncc(Cn2cc(NC(=O)c3cncc(-c4c(C(F)F)ccc(Cl)c4F)n3)cn2)cn1` (stereo partly drawn) [Example 147, 6-(3-Chloro-6-(difluoromethyl)-2-fluorophenyl)-N-(1-((2-(2-((((S)-2-fluoropropyl)(methyl)amino)methyl)pyrrolidin-1-yl)pyrimidin-5-yl)methyl)-1H-pyrazol-4-yl)pyrazine-2-carboxamide], the results for the IC50 on Human plasma kallikrein and on human factor XIa were 0.6 nM and 5500 nM, respectively.

For `O=C(Nc1cnn([C@@H](CO)c2cnc(N3CCC3)nc2)c1)c1cncc(-c2c(C(F)F)ccc(Cl)c2F)n1` (single isomer, unassigned) [Example 6], the 50% inhibitory concentration (IC50) came to 22.9 nM against Human plasma kallikrein and 1690 nM on human factor XIa.

For the molecule `CC(c1cnc(N2CC[C@H]2CN2CC[C@H](O)C2)nc1)n1cc(NC(=O)c2cncc(-c3c(C(F)F)ccc(Cl)c3F)n2)cn1` (stereo partly drawn) [Example 162, 6-(3-Chloro-6-(difluoromethyl)-2-fluorophenyl)-N-(1-(1-(2-((S)-2-(((S)-3-hydroxypyrrolidin-1-yl)methyl)azetidin-1-yl)pyrimidin-5-yl)ethyl)-1H-pyrazol-4-yl)pyrazine-2-carboxamide], the results for the 50% inhibitory concentration (IC50) at Human plasma kallikrein and on human factor XIa were 1 nM and 5190 nM, respectively.

On to `O=C(Nc1cnn(Cc2cnc(N3C[C@H]4C[C@H]4[C@H]3CNCC(O)C(F)F)nc2)c1)c1cncc(-c2c(C(F)F)ccc(Cl)c2F)n1` (stereo partly drawn) [Example 150, 6-(3-Chloro-6-(difluoromethyl)-2-fluorophenyl)-N-(1-((2-((1R,2S,5S)-2-(((3,3-difluoro-2-hydroxypropyl)amino)methyl)-3-azabicyclo[3.1.0]hexan-3-yl)pyrimidin-5-yl)methyl)-1H-pyrazol-4-yl)pyrazine-2-carboxamide], for which the IC50 turned out to be 0.6 nM against Human plasma kallikrein and 650 nM on human factor XIa.

Regarding `Cc1nc(Cn2cc(NC(=O)c3cncc(-c4c(C(F)F)ccc(Cl)c4F)n3)cn2)cnc1N1CCC1` [Example 10, N-(1-((5-(Azetidin-1-yl)-6-methylpyrazin-2-yl)methyl)-1H-pyrazol-4-yl)-6-(3-chloro-6-(difluoromethyl)-2-fluorophenyl)pyrazine-2-carboxamide], the half-inhibitory concentration (IC50) against Human plasma kallikrein amounted to 5.2 nM; at human factor XIa, 647 nM.

For `O=C(Nc1cnn(Cc2cnc(N3CCC3)nc2C2CC2)c1)c1cncc(-c2c(C(F)F)ccc(Cl)c2F)n1` [Example 22, N-(1-((2-(Azetidin-1-yl)-4-cyclopropylpyrimidin-5-yl)methyl)-1H-pyrazol-4-yl)-6-(3-chloro-6-(difluoromethyl)-2-fluorophenyl)pyrazine-2-carboxamide], the half-inhibitory concentration (IC50) against Human plasma kallikrein stood at 22.3 nM; on human factor XIa, 4370 nM.

On to `O=C(Nc1cnn(C(c2cnc(N3CCC3)nc2)C(F)F)c1)c1cncc(-c2c(C(F)F)ccc(Cl)c2F)n1` (single isomer, unassigned) [Example 36, (S or R)-N-(1-(1-(2-(azetidin-1-yl)pyrimidin-5-yl)-2,2-difluoroethyl)-1H-pyrazol-4-yl)-6-(3-chloro-6-(difluoromethyl)-2-fluorophenyl)pyrazine-2-carboxamide], for which the IC50 against Human plasma kallikrein amounted to 44.3 nM; on human factor XIa, 4430 nM.
